Experimental data: patent US7812170B2, “Insecticides” (Syngenta Crop Protection, Inc., priority 2004, dated 2010)

Legend:
Format in all cases: in vivo
Heliothis virescens = experiment: Activity against Heliothis virescens (foliar application); conditions: 144 h, 400 ppm active ingredient, sprayed young soya plants, 1st instar caterpillars, 6 days, read-out: percentage reduction in the population and in the feeding damage (% activity)
Method: (§1) Activity Against Heliothis virescens (Foliar Application) Young soya plants are sprayed with an aqueous emulsion spray mixture comprising 400 ppm of active ingredient and, after the spray coating has dried on, populated with 10 caterpillars (1st instar) of Heliothis virescens and introduced into a plastic container. 6 days later, the percentage reduction in the population and in the feeding damage (% activity) are determined by comparing the number of dead caterpillars and the feeding damage between the treated and untreated plants.

Plutella xylostella = experiment: Activity against Plutella xylostella (sprayed cabbage plants); conditions: 72 h, 400 ppm active ingredient, sprayed young cabbage plants, 3rd instar caterpillars, 3 days, read-out: percentage reduction in the population and in the feeding damage (% activity)
Method: as §1, with “Plutella xylostella” for “Heliothis virescens (Foliar Application)”, “cabbage” for “soya”, “(3rd” for “(1st”, “Plutella xylostella” for “Heliothis virescens”, “3” for “6”

Diabrotica balteata = experiment: Activity against Diabrotica balteata (sprayed maize seedlings); conditions: 144 h, 400 ppm active ingredient, 2nd instar larvae, 6 days, read-out: percentage reduction in the population (% activity)
Method: Activity Against Diabrotica balteata Maize seedlings are sprayed with an aqueous emulsion spray mixture comprising 400 ppm of active ingredient and, after the spray coating has dried on, populated with 10 larvae (2nd instar) of Diabrotica balteata and introduced into a plastic container. 6 days later, the percentage reduction in the population (% activity) is determined by comparing the number of dead larvae between the treated and untreated plants.

Myzus persicae = experiment: Activity against Myzus persicae (foliar application); conditions: 400 ppm active ingredient, spray on infected pea seedlings, 20°, 3 and 6 days, read-out: percentage reduction in the population (% activity)
Method: Activity Against Myzus persicae (Foliar Application) Pea seedlings are infected with Myzus persicae, subsequently sprayed with a spray mixture comprising 400 ppm of active ingredient and then incubated at 20°. 3 and 6 days later, the percentage reduction in the population (% activity) is determined by comparing the number of dead aphids between the treated and untreated plants.

Spodoptera littoralis = experiment: Activity against Spodoptera littoralis (sprayed soya plants); conditions: 72 h, 400 ppm active ingredient, sprayed young soya plants, 1st instar caterpillars, 3 days, read-out: percentage reduction in the population and in the feeding damage (% activity)
Method: as §1, with “Spodoptera littoralis” for “Heliothis virescens (Foliar Application)”, “Spodoptera littoralis” for “Heliothis virescens”, “3” for “6”

Measured: inhibition at 400 ppm

CNC(=O)c1cc2ccccc2c(Cl)c1NC(=O)c1cc(C(F)(F)F)nn1-c1ncccc1Cl [Compound T1.1]
> 80%: all assays above

CNC(=O)c1cc2ccccc2c(Br)c1NC(=O)c1cc(C(F)(F)F)nn1-c1ncccc1Cl [Compound T7.1]
> 80%: all assays above
